Bounds are passed on as bounds.

With `CCCCOCCOC(=O)C(=O)Nc1nc(-c2ccccc2)cs1`, the melting point was 94 to 95 °C.
Under `CCOC(=O)C1=C(C)NC(CN(C)C)=C(C(=O)OCC)C1c1ccccc1Br` (stereo unspecified) stands 142 to 143 °C; under `O=c1[nH]c2ccc(N3CCN(Cc4ccccc4)CC3)cc2c(=O)o1`, 235 °C.
`COc1cccc(C(O)c2cc3ccccc3s2)c1` (stereo unspecified): the melting point was in the range of 63 to 65 °C.
In the case of `CC1CCCN1c1cc(F)cc(C(=O)Nc2ccc(OCCN3CCOCC3)c3ccccc23)c1` (stereo unspecified), the melting point was in the range of 108 to 111 °C.
Under `COc1ccc2nc(COc3ccc(CC(SC(C)=O)C(=O)O)cc3)n(C)c2c1` (stereo unspecified) stands 209 to 214 °C; under `CC(=O)NCC1CC1c1c(C)ccc2nn(C)cc12` (stereo unspecified), 139 to 140 °C.
Under `O=C(O)c1ccc2oc(COCc3ccccc3)cc2c1` stands 129 to 132 °C.
In turn, `C/C(=C\c1ccc(OCc2nc(-c3ccc(C(F)(F)F)cc3)oc2C)cc1)Cn1oc(=O)[nH]c1=O` had a melting point of 90 to 91 °C.
The compound `Cc1cc(C(=O)O)ccc1OCCNC(=O)C1Cc2ccccc2N1S(=O)(=O)c1ccc(-c2ccc(F)cc2)cc1` (stereo unspecified) had a melting point of 112 to 118 °C.
Turning to `COc1ccc2c(c1OC)SCCC2C#N` (stereo unspecified), the melting point fell in the range of 116 to 118 °C.
For `CCCn1ccc2c(c1=O)C(c1cccc(Cl)c1Cl)C(C(=O)OCC)=C(C)N2` (stereo unspecified), the melting point fell in the range of 264 to 265 °C.
Under `O=C(O)Cn1cc(C(=O)O)c(=O)c2ccccc(=O)c21` stands more than 250 °C; under `CC(C)(CO)NS(=O)(=O)c1cccc(NC(=O)c2cnn3c(C(F)(F)F)cc(-c4ccc(C(F)(F)F)cc4)nc23)c1`, 227 °C.
Then `CCCc1ccnc2c(=O)[nH]c(-c3cc(S(=O)(=O)N4CCN(CCO)CC4)ccc3OCC)nc12`, with 187 to 188 °C.
For `CCN(CC)c1ccc(-c2cc(-c3ccc(C(=O)O)cc3)ccc2CCCNC2CCCC2)cc1C(C)(C)C`, the melting point was determined as 255 °C.
In the case of `FC(F)(F)c1cc(CO[C@@H]2CCCN(Cc3nc4ccccc4o3)[C@@H]2c2ccccc2)cc(C(F)(F)F)c1` (relative stereo), the melting point fell in the range of 95 to 97 °C.
Consider `CC(C)C1(C)NC(c2ncc(Br)cc2C(=O)O)=NC1=O` (stereo unspecified), for which the melting point lay within 206 to 208 °C.
As for `CN(C)NC(=NS(=O)(=O)c1ccc(Cl)cc1)N1CC(c2ccccc2)C(c2ccc(Cl)cc2)=N1` (single isomer, unassigned; (-)), the melting point was in the range of 218 to 224 °C.
As to `N#Cc1cc(N)ccc1N1CCOCC1`, the melting point was in the range of 147 to 148 °C.
In turn, `CC1Oc2c(cc(CN3CCN(c4ccc(C(=O)NC5CC5)cc4)CC3)cc2-c2ccccc2)NC1=O` (stereo unspecified) displayed a melting point of 217 to 224 °C.
`Clc1ccc2scc(Br)c2c1` yielded a melting point of 85 to 86 °C.
`O=Cc1ncc(C(O)C(F)(F)F)s1` (stereo unspecified) showed a melting point of 64 to 66 °C.
Under `Cc1ccc(NC(=O)N(C)Cc2cccc3c2C(=O)N(C2CCC(=O)NC2=O)C3=O)cc1` (stereo unspecified) stands more than 260 °C; under `CCCCCCCCCCCCCCCCCC1=NCCO1`, 52 to 53 °C.
Then `COc1ccc(-c2cc3c(s2)c(=O)c(S(C)=O)cn3C)cc1` (stereo unspecified), with 262 to 264 °C; and `CS(=O)(=O)c1ccc(-c2oc(CCC(=O)O)nc2-c2ccc(F)cc2)cc1`, with 197 to 198 °C.
`CCCC=CCC(CC(=O)Nc1cc(Cc2n[nH]c(=O)c3ccccc23)ccc1F)C(=O)O` (stereo unspecified) had a melting point of 179 to 181 °C.
Under `CN(C)C=Cc1[nH]c(=O)ccc1C(=O)c1ccccc1` stands 202 to 204 °C; under `CC(=O)Nc1ccc(CSc2ccc(CC(=O)O)cc2)c(C(=O)O)c1`, 205 to 207 °C.
Then `N#Cc1ccc(O)cc1C(N)=O`, with 268 to 270 °C.
As to `c1ccc(N2c3ccccc3C3CN(CC45CC6CC(CC(C6)C4)C5)CCC32)cc1` (single isomer, unassigned; (+)), the melting point was 117 to 119 °C.
Compound `Nc1ccc2nc(-c3ccccc3)cc(OCC(=O)N3CCOCC3)c2c1` yielded a melting point of 194 °C.
Under `Oc1ccc(Sc2cccc(O)n2)cc1` stands 234 to 238 °C; under `CCOC(=O)c1c(NC=CC(=O)C(C)C)sc(-c2ccccc2)c1C`, 104 to 108 °C; under `Cc1ccc(Sc2cncc3sc(C(N)=O)cc23)cc1`, 198 to 199 °C.
Take `O=C(O)CCc1cn(Cc2ccc(OCc3cccnc3)cc2)nc1-c1ccccc1`: the melting point fell in the range of 112 to 113 °C.
Then `CCOC(=O)C1Cc2[nH]c3ccc(OC)cc3c2C1` (stereo unspecified), with 82 to 83 °C; and `COc1cc2nc(N3CCc4c(ncnc4N4CCOCC4)C3)[nH]c(=O)c2cc1OC`, with 288 to 290 °C; and `O=C(O)C1=Cc2cc(Cl)c(Oc3cccc(C(=O)O)c3)cc2OC1C(F)(F)F` (stereo unspecified), with 288 to 289 °C.
Then `COC(=O)O[C@@H]1[C@@H](c2ccccc2)Nc2c(ccn3c(C)c(C)nc23)[C@H]1OC`, with 90 to 91 °C.
`CNC(=O)N(O)Cc1cccc(Nc2ccccc2C(=O)OC)c1Cl` came in with a melting point of 143 to 145 °C.
Then `Cc1ccc(NC(=O)C(CC2CCCC2)c2ccc(S(C)(=O)=O)cc2)nc1` (stereo unspecified), with 82 to 85 °C.
The compound `COc1c(C)c(Cl)c(C)c(Cl)c1CNC(=O)CCl` yielded a melting point of 205 to 206 °C.
Then `Clc1ccc(OC(c2ccc(Cl)cc2)C(Cl)(Cl)Cl)cc1` (stereo unspecified), with 101 °C.
In the case of `COc1cc2nc(C(=O)Nc3cc(C)cc(C)n3)[nH]c2cc1OC`, the melting point stood at 256 °C.
`O=c1cc2c(n[nH]1)CCc1cc(O)ccc1-2` showed a melting point of more than 300 °C.
Under `O=C(O)c1oc(-c2ccccc2)cc(=O)c1Br` stands 247 °C; under `CCN(CC)C1=C2N=c3cc(Cl)ccc3=C2Oc2ccccc2N1C`, 127 to 128 °C.
The compound `CCCCc1nc2ccccc2c(=O)n1Cc1ccc(-c2ccccc2-c2nnn[nH]2)cc1` gave a melting point of 180 to 182 °C.
Then `CCSc1ccc(-c2ccncc2)c2c1C(=O)CC(C)C2` (stereo unspecified), with 145 to 147 °C.
In turn, `CC(C)(C)NC(=O)N1CCn2c(Cl)c(-c3ccccc3)c(C(N)=O)c2C1` had a melting point of 192 to 195 °C.
In turn, `CC(C)(C)OC(=O)NCCNC(=O)c1ccc(Cl)cc1` gave a melting point of 141 to 143 °C.
Then `CCCC(Oc1cc(OC)ccc1C(=O)c1ccc(OCc2nc(-c3ccccc3)oc2C)cc1)C(=O)O` (stereo unspecified), with 139 to 140 °C; and `CCCC/C(=C\C=C\C(=O)O)c1cccc(OC)c1`, with 77.5 to 78.5 °C.
`N#Cc1ccc2c(c1)CS(=O)(=O)NN=C2c1ccc(F)cc1` yielded a melting point of 218 to 219 °C.
For `CN1CCC(c2c[nH]c3ccc(O[Si](C)(C)C(C)(C)C)cc23)CC1`, the melting point was in the range of 191 to 195 °C.
Then `COc1ccc(C2=NN(CCCCN3C(=O)c4ccccc4C3=O)C(=O)[C@H]3CC=CC[C@@H]23)cc1OC` (relative stereo), with 139 to 140 °C; and `Nc1cc(C(=O)c2ccccc2)ccc1N1CCCCC1`, with 99 to 100 °C; and `CC1(C)COC(c2ccccc2C2Oc3cccc(F)c3C(=O)C2=Cc2ccccc2)=N1` (stereo unspecified), with 110 to 112 °C.
With `COC(=N)N1CCC(c2n[nH]c3ccccc23)CC1`, the melting point fell in the range of 153 to 155 °C.
Then `Cc1nc(-c2ccccc2)cc(=O)[nH]1`, with 238 to 240 °C.
Under `CN1CC(=O)c2c(c3ccccc3n2C)S1(=O)=O` stands 180 °C; under `O=C1CCC(c2ccc(Br)cc2)CC1`, 59.4 to 61.4 °C.
Then `Cc1cccc(C(=O)NC(C)C)c1NC(=O)c1cnc(C(F)(F)F)nc1C`, with 248 to 251 °C; and `CC(C)N(CCC1(c2ccccc2Cl)CC(=O)NC1=O)C(C)C` (stereo unspecified), with 116 to 119 °C; and `CCOC(=O)C(=CNC1CC1)C(=O)c1c(C)c(F)c(F)c(F)c1F`, with 72 to 74 °C.
`CN1CCCC1Cc1cn(Cc2ccccc2)c2ccc(C(C#N)S(=O)(=O)N(C)C(c3ccccc3)c3ccccc3)cc12` (stereo unspecified) displayed a melting point of 152 to 155 °C.
The compound `CCOC(=O)C1=C(C)Nc2nc(N)nc(N)c2C1c1cc(OC)c(OC)c(OC)c1` (stereo unspecified) gave a melting point of 126 °C.
Then `CCNS(=O)(=O)c1cccc(OCc2nc3ccccc3s2)c1`, with 111 to 113 °C.
Compound `C=CCN1C(=O)COc2cc(F)c(-n3c(=O)cc(CC)[nH]c3=O)cc21` showed a melting point of 197 to 200 °C.
Under `Cc1nn(C)c(C)c1S(=O)(=O)N1CCC2(CC1)CSC1=C(O2)c2ccccc2C(=O)C1=O` stands 273 to 275 °C.
`CCS(=O)(=O)N(C(C)=O)c1cc(-c2ncnc(C(F)(F)F)c2Cl)c(F)cc1C#N` registered a melting point of 144 to 146 °C.
Under `O=C(C(=O)c1ccc(F)c(Br)c1)c1ccc(OCCF)cc1` stands 107 °C.
Under `Cc1cc(O)c2ccccc2c1OCc1ccccc1` stands 159 to 161 °C.
Then `COc1ccc2ccc(C(=O)CNC(=O)Cc3ccc4ccccc4c3)cc2c1`, with 169 to 173 °C; and `CCCNC(=Nc1ccccc1N1CCOCC1)NCCC`, with 212 to 214 °C; and `CC(=O)C1CCC2C3CCC4CC=CCC4(C)C3C(OC(=O)CI)CC12C` (stereo unspecified), with 127 to 129 °C.
`CCCCc1nn2ccccc2c1Cc1ccc(Br)cc1` gave a melting point of less than 50 °C.
Under `COc1ccc(CNc2nnc(NCCCO)c3ccc(C#N)cc23)cc1Cl` stands 132 to 135 °C; under `CCNC(=O)Nc1nc2nc(NCCN(CC)CC)ncc2cc1-c1c(Cl)cccc1Cl`, 86.5 to 89.5 °C.
Then `CCN(CC)CC1CCCCN1CC#CCN1c2ccccc2C(=O)Nc2cccnc21` (stereo unspecified), with 132 to 134 °C; and `CC1(C)NCCc2c1oc1cc(S(=O)(=O)c3cccc(F)c3)ccc21`, with 110 to 114 °C.
For the compound `Cc1ccc(-n2nc(C(N)=O)nc2-c2ccccc2)cc1C`, the melting point was in the range of 169 to 170 °C.
In turn, `CC1CCCN1CCCN1CCN(CCCN2CCCC2C)C1=C(C#N)C#N` (stereo unspecified) displayed a melting point of 89 to 93 °C.
In turn, `Fc1ccc(Cn2c(NC3CCN(CCN(Cc4ccccc4)Cc4ccccc4)CC3)nc3ccccc32)cc1` showed a melting point of 116 °C.

Usually melting point stands for the temperature of the solid-liquid transition.

Values taken from a melting point compilation (Tetko et al.; mined from patent text by program, amines drawn as free bases though some values may be those of a salt).
